These are literature values, as cited in patent US9510493B2, “Mixture of hydrofluoroolefin and fluoroketone for use as an insulation and/or ARC extinguishing medium and a gas insulated medium-voltage electrical device comprising same” (priority 2011, dated 2016).

For data set [1], the system named is animal population. To be noted: causing death of 50% of an animal population.
For data set [2], the system named is humans. The note with it: average limit concentration, 8 hours per day for 5 days per week, without noxious effect.

For the compound `F/C=C/C(F)(F)F` [HFO-1234ze, trans-1,3,3,3-tetrafluoro-1-propene], the “lethal dose DL50” value in data set [1] is > 200 000 ppm. In addition, the “occupational exposure limit OEL” value in data set [2] is 1 000 ppm.
`O=C(C(F)(F)F)C(F)(C(F)(F)F)C(F)(F)F` [C5K, decafluoro-2-methylbutan-3-one]: the “lethal dose DL50” value in data set [1] is reported as “more than 200 000 ppm”. Besides, the “occupational exposure limit OEL” value in data set [2] is reported as 1 000 ppm.
